Measurements reported in patent US20170368082A1, “FORMULATIONS OF BRINCIDOFOVIR” (priority 2016, published 2017).

Assay: Tissue distribution by quantitative whole-body autoradiography (QWBA)
Assay type: in vivo, male Sprague Dawley and Long-Evans rats
Details: for Concentration of radioactivity: SD rat, 15 mg/kg IV
Description: The study utilized 4 groups of male SD rats (albino), and 3 groups of male LE rats (pigmented); a total of 39 rats. All animals were obtained from Hilltop Lab Animals, Inc. (Scottdale, Pa.). […] Rats in Group 5 were administered a single 2-h IV infusion of [^14C]brincidofovir at a target dose of 2 mg/kg. […] Three dosing formulations (one for high dose IV, one for low dose IV, and one for PO dose) were prepared at QPS on the day of dosing. The IV formulation for Groups 1, 2, 3, and 4 contained a vehicle of 10 mM sodium phosphate buffer in 5% dextrose solution at pH 8.0(±0.1).
Each animal, at their respective termination time points, was euthanized for QWBA analysis immediately after blood collection. One rat per time point per Group was euthanized as listed below.
The blood samples were maintained on wet ice (approximately 4° C.) and then centrifuged to obtain plasma within 1 h of the blood collection time. Centrifuge settings were recorded in the study notebook. Duplicate aliquots of plasma (0.050 mL) were analyzed for radioactivity using direct counting by LSC, and residual plasma was stored at approximately −70° C. and was saved for possible future analysis under a separate study protocol. Residual red blood cells were discarded as radioactive waste.
The pinna, distal limbs, hair, and tail were removed from each frozen carcass and each frozen carcass was embedded in an aqueous suspension of approximately 2% (w/v) carboxymethylcellulose and frozen into a block. The blocks were stored at approximately −20° C. prior to sectioning. Each blocked carcass was mounted on the object stage of a cryomicrotome (Leica CM3600 Cryomacrocut, Nussloch, Germany and Vibratome 9800, St. Louis, Mo.) maintained at approximately −20° C. and internal standards (3), which were plasma fortified with [^14C]-glucose at one concentration (approximately 0.05 μCi/mL), were placed into the frozen blocks, prior to sectioning, and were used for section thickness quality control. A number of whole-body sections (approximately 40 μm thick) were taken in the sagittal plane at various levels of interest using a whole-body cryomicrotome set at −20° C. Sagittal sections (20-50 μm thick) of frozen carcasses were exposed to phosphor imaging plates. Regions of images in tissues were converted to concentrations using standards. All of the major tissues, organs, and biological fluids were represented.
Tissue concentration data was determined for the following tissues and/or contents: adipose (brown and white), adrenal gland, bile (in duct), blood (cardiac), bone, bone marrow, brain (cerebrum, cerebellum, medulla), cecum (and contents), large intestine (and contents), epididymis, esophagus, eye (uvea and lens), Harderian gland, heart, kidney (cortex and medulla), liver, lung, lymph node, pancreas, pituitary gland, prostate gland, salivary gland, seminal vesicles, skeletal muscle, skin (pigmented and non-pigmented), small intestine (and contents), stomach (gastric mucosa and contents), spleen, spinal cord, testis, thymus, thyroid, and urinary bladder (and contents).
The imaging plate and sections were placed in light-tight exposure cassettes, in a copper-lined lead safe, for a 4-day exposure at room temperature. […] Quantification was performed by image densitometry using MCD image analysis software (v. 7.0, Interfocus Imaging Ltd) and a standard curve constructed from the integrated response [i.e., Molecular Dynamics Counts per square millimeter (MDC/mm^2)] and the nominal concentrations of the ^14C-calibration standards. The concentrations of radioactivity were expressed as the μg equivalents of [^14C]brincidofovir per gram sample (μg equiv/g). A lower limit of quantification (LLOQ) was applied to the data (See section 6.7.4).
Tissue concentrations that fell below the LLOQ were identified as being below the quantification limit (BQL). Tissue areas that were not visualized on autoradiographic images were identified as no sample (NS) and reported as BQL.

CCCCCCCCCCCCCCCCOCCCOP(=O)(O)CO[C@H](CO)Cn1ccc(N)nc1=O [[^14C]brincidofovir]
Concentration at Tmax: kidney medulla (Group 6 SD, 15 mg/kg PO): 7.9 μg equiv/g
Concentration at Tmax: liver (Group 6 SD, 15 mg/kg PO): 20.6 μg equiv/g
Concentration at Tmax: small intestine (Group 6 SD, 15 mg/kg PO): 236.3 μg equiv/g
Concentration at Tmax: stomach (Group 6 SD, 15 mg/kg PO): 11.2 μg equiv/g
Concentration at Tmax: urinary bladder (Group 6 SD, 15 mg/kg PO): 17.3 μg equiv/g
Residual concentration in small intestine at 168 h (Group 6 SD, 15 mg/kg PO): 2.7 μg equiv/g
Highest observed concentration in blood (Group 6 SD, 15 mg/kg PO, 2 h): 0.200 μg equiv/g
Urinary bladder contents (Group 7, 8 h): 110.9 μg equiv/g
Concentration of radioactivity, Eye (lens) (Group 7 LE pigmented rats, oral 15 mg/kg, c2-c11 = 0.5, 1, 2, 4, 8, 24, 72, 96, 168, 840 h, LLOQ 0.034): BQL
Concentration at Tmax: cecum (Group 7 LE, 15 mg/kg PO): 7.6 μg equiv/g
Concentration at Tmax: kidney cortex (Group 7 LE, 15 mg/kg PO): 17.8 μg equiv/g
Concentration at Tmax: kidney medulla (Group 7 LE, 15 mg/kg PO): 9.1 μg equiv/g
Concentration at Tmax: large intestine (Group 7 LE, 15 mg/kg PO): 3.3 μg equiv/g
Concentration at Tmax: liver (Group 7 LE, 15 mg/kg PO): 36.1 μg equiv/g
Concentration at Tmax: small intestine (Group 7 LE, 15 mg/kg PO): 458.5 μg equiv/g
Concentration at Tmax: stomach (Group 7 LE, 15 mg/kg PO): 12.0 μg equiv/g
Concentration at Tmax: urinary bladder (Group 7 LE, 15 mg/kg PO): 3.7 μg equiv/g
Highest observed concentration in blood (Group 7 LE, 15 mg/kg PO, 8 h): 1.1 μg equiv/g
Concentration of radioactivity (Harderian Gland, 2 h): 2.081 μg equiv./g
Concentration of radioactivity (Harderian Gland, 24 h): 1.278 μg equiv./g
Concentration of radioactivity (Harderian Gland, 168 h): 0.954 μg equiv./g
Concentration of radioactivity (Heart, 2 h): 2.540 μg equiv./g
Concentration of radioactivity (Heart, 24 h): 0.408 μg equiv./g
Concentration of radioactivity (Heart, 168 h): 0.057 μg equiv./g
Radioactivity in brain and spinal cord relative to plasma concentration (IV administration): ~20%
Tissue to plasma ratios (T/P) in liver, kidney and small intestine (IV and oral): > 30
Small intestine tissue to plasma ratio (IV infusion, 15 mg/kg): 32
Concentration of radioactivity (Kidney Cortex, 2 h): 106.513 μg equiv./g
Concentration of radioactivity (Kidney Cortex, 24 h): 32.109 μg equiv./g
Concentration of radioactivity (Kidney Cortex, 168 h): 0.474 μg equiv./g
Concentration of radioactivity (Kidney Medulla, 2 h): 33.444 μg equiv./g
Concentration of radioactivity (Kidney Medulla, 24 h): 4.271 μg equiv./g
Concentration of radioactivity (Kidney Medulla, 168 h): 0.186 μg equiv./g
Concentration of radioactivity (Liver, 2 h): 229.371 μg equiv./g
Concentration of radioactivity (Liver, 24 h): 13.907 μg equiv./g
Concentration of radioactivity (Liver, 168 h): 0.453 μg equiv./g
Concentration of radioactivity (Lung, 2 h): 5.675 μg equiv./g
Concentration of radioactivity (Lung, 24 h): 1.128 μg equiv./g
Concentration of radioactivity (Lung, 168 h): 0.296 μg equiv./g
Concentration of radioactivity (Lymph Node, 2 h): 4.055 μg equiv./g
Concentration of radioactivity (Lymph Node, 24 h): 1.004 μg equiv./g
Concentration of radioactivity (Lymph Node, 168 h): 0.247 μg equiv./g
Concentration of radioactivity (Pancreas, 2 h): 1.974 μg equiv./g
Concentration of radioactivity (Pancreas, 24 h): 0.557 μg equiv./g
Concentration of radioactivity (Pancreas, 168 h): BQL (BQL = Value is below the LLOQ)
Concentration of radioactivity (Pituitary Gland, 2 h): 2.793 μg equiv./g
Concentration of radioactivity (Pituitary Gland, 24 h): 1.021 μg equiv./g
Concentration of radioactivity (Pituitary Gland, 168 h): 0.257 μg equiv./g
Concentration of radioactivity (Prostate Gland, 2 h): 2.033 μg equiv./g
Concentration of radioactivity (Prostate Gland, 24 h): 0.254 μg equiv./g
Concentration of radioactivity (Prostate Gland, 168 h): 0.051 μg equiv./g
Concentration of radioactivity (Salivary Gland, 2 h): 2.049 μg equiv./g
Concentration of radioactivity (Salivary Gland, 24 h): 0.395 μg equiv./g
Concentration of radioactivity (Salivary Gland, 168 h): 0.047 μg equiv./g
Concentration of radioactivity (Seminal Vesicles, 2 h): 1.809 μg equiv./g
Concentration of radioactivity (Seminal Vesicles, 24 h): 1.636 μg equiv./g
Concentration of radioactivity (Seminal Vesicles, 168 h): 0.817 μg equiv./g
Concentration of radioactivity (Skeletal Muscle, 2 h): 0.868 μg equiv./g
Concentration of radioactivity (Skeletal Muscle, 24 h): 0.099 μg equiv./g
Concentration of radioactivity (Skeletal Muscle, 168 h): BQL (BQL = Value is below the LLOQ)
Concentration of radioactivity (Skin (non-pigmented), 2 h): 2.277 μg equiv./g
Concentration of radioactivity (Skin (non-pigmented), 24 h): 0.602 μg equiv./g
Concentration of radioactivity (Skin (non-pigmented), 168 h): 0.121 μg equiv./g
Concentration of radioactivity (Spinal Cord, 2 h): 0.437 μg equiv./g
Concentration of radioactivity (Spinal Cord, 24 h): 0.079 μg equiv./g
Concentration of radioactivity (Spinal Cord, 168 h): BQL (BQL = Value is below the LLOQ)
Concentration of radioactivity (Spleen, 2 h): 4.536 μg equiv./g
Concentration of radioactivity (Spleen, 24 h): 2.244 μg equiv./g
Concentration of radioactivity (Spleen, 168 h): 0.694 μg equiv./g
Concentration of radioactivity (Testis, 2 h): 1.647 μg equiv./g
Concentration of radioactivity (Testis, 24 h): 0.436 μg equiv./g
Concentration of radioactivity (Testis, 168 h): 0.078 μg equiv./g
Concentration of radioactivity (Thymus, 2 h): 2.373 μg equiv./g
Concentration of radioactivity (Thymus, 24 h): 0.556 μg equiv./g
Concentration of radioactivity (Thymus, 168 h): 0.105 μg equiv./g
Concentration of radioactivity (Thyroid, 2 h): 2.751 μg equiv./g
Concentration of radioactivity (Thyroid, 24 h): 0.791 μg equiv./g
Concentration of radioactivity (Thyroid, 168 h): 0.239 μg equiv./g
Concentration of radioactivity (Urinary Bladder (contents), 2 h): 47.034 μg equiv./g
Concentration of radioactivity (Urinary Bladder (contents), 24 h): 21.237 μg equiv./g
Concentration of radioactivity (Urinary Bladder (contents), 168 h): 0.121 μg equiv./g
Concentration of radioactivity (Urinary Bladder, 2 h): 35.978 μg equiv./g
Concentration of radioactivity (Urinary Bladder, 24 h): 2.264 μg equiv./g
Concentration of radioactivity (Urinary Bladder, 168 h): 0.132 μg equiv./g
Radioactivity in brain and spinal cord relative to plasma concentration (oral administration): ~5%
Small intestinal tissue to plasma ratio (T/P) (oral administration, 15 mg/kg): 428
Residual concentration in small intestine at 168 h (pigmented LE rats, 15 mg/kg PO): 5.9 μg equiv/g
